In this series the test system is mice. In words: short-term inhalation test, acute toxicity. The conditions noted are these: mice exposed for four hours at 100,000 ppm in air. The format is in vivo.

Our source for the acute toxicity values is US20120280189A1, “PERFLU[…] GASEOUS DIELECTRICS” (priority 2010, published 2012).

Structures are written as SMILES.

Turning to `O=C(C(F)(F)C(F)(F)F)C(F)(C(F)(F)F)C(F)(F)F` [CF3CF2C(O)CF(CF3)2, 1,1,1,2,2,4,5,5,5-nonafluoro-4-trifluoromethyl-pentan-3-one], the acute toxicity result was “low acute toxicity”.
